{"source": "patent US20240197806A1", "about": "“EBELIN LACTONE OR BACOGENIN A1 ENRICHED COMPOSITION AND METHOD OF PREPARATION THEREOF” (priority 2022, published 2024)", "origin": "cited, not measured here", "key": {"[1]": {"conditions": "Ramasamy et al., PLoS One 2015"}, "[2]": {"conditions": "Ramasamy et al., PLoS One 2015", "remark": "listed apart in the source"}, "5-HT2A receptors": {"biological_target": "5-HT2A receptors (Homo sapiens, UniProt P28223)", "sequence (P28223 whole entry)": "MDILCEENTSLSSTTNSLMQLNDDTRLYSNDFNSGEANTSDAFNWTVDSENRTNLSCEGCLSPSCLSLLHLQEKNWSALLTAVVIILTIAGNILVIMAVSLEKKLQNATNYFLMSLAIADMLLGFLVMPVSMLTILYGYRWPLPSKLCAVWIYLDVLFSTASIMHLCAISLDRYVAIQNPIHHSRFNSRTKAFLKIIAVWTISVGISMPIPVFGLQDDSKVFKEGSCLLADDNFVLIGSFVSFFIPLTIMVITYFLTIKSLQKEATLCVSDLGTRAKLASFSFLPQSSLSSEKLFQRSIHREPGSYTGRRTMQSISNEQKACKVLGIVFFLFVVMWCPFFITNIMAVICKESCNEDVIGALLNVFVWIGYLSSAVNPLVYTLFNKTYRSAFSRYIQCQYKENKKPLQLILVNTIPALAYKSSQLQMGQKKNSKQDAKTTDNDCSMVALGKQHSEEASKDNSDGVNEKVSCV", "conditions": "read-out: Ki, binding to the 5-HT2A receptors"}}}
{"compound": "bacopaside II", "values": [{"measurement": "intestinal absorption", "setting": "[1]", "value": "poor"}, {"measurement": "ability to cross the blood brain barrier / blood brain barrier penetration", "setting": "[2]", "value": "not able to cross"}]}
{"compound": "CC(C)=C[C@@H]1CO[C@]23C[C@]4(CO2)[C@H](CC[C@@H]2[C@@]5(C)CC[C@H](O[C@@H]6OC[C@H](O)[C@H](O[C@@H]7O[C@H](CO)[C@@H](O)[C@H](O)[C@H]7O)[C@H]6O[C@@H]6O[C@@H](CO)[C@H](O)[C@H]6O)C(C)(C)[C@@H]5CC[C@]24C)[C@H]3[C@@]1(C)O", "note": "[bacopasaponin C]", "values": [{"measurement": "intestinal absorption", "setting": "[1]", "value": "poor"}, {"measurement": "ability to cross the blood brain barrier / blood brain barrier penetration", "setting": "[2]", "value": "not able to cross"}]}
{"compound": "CC(C)=C/C=C/C(C)=C/C1CCC2[C@@]3(C)CC[C@H](O)C(C)(C)C3CC[C@@]2(C)[C@@]12COC(=O)C2", "note": "(stereo partly drawn) [ebelin lactone]", "values": [{"measurement": "Ki", "setting": "5-HT2A receptors", "value": 4.21, "unit": "µM"}, {"measurement": "ability to cross the blood brain barrier / blood brain barrier penetration", "setting": "[2]", "value": "very high"}]}
{"compound": "CC(C)=CC1C[C@](C)(O)C2C3CCC4[C@@]5(C)CC[C@H](O)C(C)(C)C5CC[C@@]4(C)[C@]34CO[C@]2(C4)O1", "note": "(stereo partly drawn) [jujubogenin]", "values": [{"measurement": "intestinal absorption", "setting": "[1]", "value": "good"}, {"measurement": "ability to cross the blood brain barrier / blood brain barrier penetration", "setting": "[2]", "value": "able to cross"}]}
{"compound": "CC1=CC(C)(C)O[C@@]1(C)C1C(=O)C[C@]2(CO)C1CCC1[C@@]3(C)CC[C@H](O)C(C)(C)C3CC[C@]12C", "note": "(stereo partly drawn) [bacogenin A1]", "values": [{"measurement": "intestinal absorption", "setting": "[1]", "value": "same absorption parameters as jujubogenin and pseudojujubogenin"}]}
{"compound": "CC(C)=C[C@H]1C[C@](C)(O)[C@H]2[C@H]3CC[C@@H]4[C@@]5(C)CC[C@H](O[C@@H]6O[C@H](CO)[C@@H](O)[C@H](O[C@@H]7O[C@H](CO)[C@@H](O)[C@H](O)[C@H]7O)[C@H]6O[C@@H]6O[C@@H](CO)[C@H](O)[C@H]6O)C(C)(C)[C@@H]5CC[C@@]4(C)[C@@]34CO[C@@]2(C4)O1", "note": "[bacoside A3]", "values": [{"measurement": "intestinal absorption", "setting": "[1]", "value": "poor"}, {"measurement": "ability to cross the blood brain barrier / blood brain barrier penetration", "setting": "[2]", "value": "not able to cross"}]}
{"compound": "CC(C)=CC1COC23CC4(CO2)C(CCC2C5(C)CCC(O)C(C)(C)C5CCC24C)C3C1(C)O", "note": "(stereo not drawn) [pseudojujubogenin]", "values": [{"measurement": "intestinal absorption", "setting": "[1]", "value": "good"}, {"measurement": "ability to cross the blood brain barrier / blood brain barrier penetration", "setting": "[2]", "value": "able to cross"}]}
{"compound": "CC(C)=C[C@H]1C[C@](C)(O)[C@@H]2[C@H]3CC[C@@H]4[C@@]5(C)CC[C@H](O[C@@H]6OC[C@H](O)[C@H](O[C@@H]7O[C@H](CO)[C@@H](O)[C@H](O)[C@H]7O)[C@H]6O[C@@H]6O[C@@H](CO)[C@H](O)[C@H]6O)C(C)(C)[C@@H]5CC[C@@]4(C)[C@@]34CO[C@@]2(C4)O1", "note": "[bacopaside X]", "values": [{"measurement": "intestinal absorption", "setting": "[1]", "value": "poor"}, {"measurement": "ability to cross the blood brain barrier / blood brain barrier penetration", "setting": "[2]", "value": "not able to cross"}]}
